# ChEMBL document CHEMBL1201862, “PubChem BioAssay data set” (2004)
# Activity calls are given as the source filed them.
# Key:
# [1] = target: T1, Sentrin-specific protease 6 (Homo sapiens, UniProt Q9GZR1); assay: inhibition of human SENP6 catalytic domain – biochemical, luminescence, set 2, SAR follow-up (AID 588598); assay type: functional
# T1 sequence (Q9GZR1 whole entry): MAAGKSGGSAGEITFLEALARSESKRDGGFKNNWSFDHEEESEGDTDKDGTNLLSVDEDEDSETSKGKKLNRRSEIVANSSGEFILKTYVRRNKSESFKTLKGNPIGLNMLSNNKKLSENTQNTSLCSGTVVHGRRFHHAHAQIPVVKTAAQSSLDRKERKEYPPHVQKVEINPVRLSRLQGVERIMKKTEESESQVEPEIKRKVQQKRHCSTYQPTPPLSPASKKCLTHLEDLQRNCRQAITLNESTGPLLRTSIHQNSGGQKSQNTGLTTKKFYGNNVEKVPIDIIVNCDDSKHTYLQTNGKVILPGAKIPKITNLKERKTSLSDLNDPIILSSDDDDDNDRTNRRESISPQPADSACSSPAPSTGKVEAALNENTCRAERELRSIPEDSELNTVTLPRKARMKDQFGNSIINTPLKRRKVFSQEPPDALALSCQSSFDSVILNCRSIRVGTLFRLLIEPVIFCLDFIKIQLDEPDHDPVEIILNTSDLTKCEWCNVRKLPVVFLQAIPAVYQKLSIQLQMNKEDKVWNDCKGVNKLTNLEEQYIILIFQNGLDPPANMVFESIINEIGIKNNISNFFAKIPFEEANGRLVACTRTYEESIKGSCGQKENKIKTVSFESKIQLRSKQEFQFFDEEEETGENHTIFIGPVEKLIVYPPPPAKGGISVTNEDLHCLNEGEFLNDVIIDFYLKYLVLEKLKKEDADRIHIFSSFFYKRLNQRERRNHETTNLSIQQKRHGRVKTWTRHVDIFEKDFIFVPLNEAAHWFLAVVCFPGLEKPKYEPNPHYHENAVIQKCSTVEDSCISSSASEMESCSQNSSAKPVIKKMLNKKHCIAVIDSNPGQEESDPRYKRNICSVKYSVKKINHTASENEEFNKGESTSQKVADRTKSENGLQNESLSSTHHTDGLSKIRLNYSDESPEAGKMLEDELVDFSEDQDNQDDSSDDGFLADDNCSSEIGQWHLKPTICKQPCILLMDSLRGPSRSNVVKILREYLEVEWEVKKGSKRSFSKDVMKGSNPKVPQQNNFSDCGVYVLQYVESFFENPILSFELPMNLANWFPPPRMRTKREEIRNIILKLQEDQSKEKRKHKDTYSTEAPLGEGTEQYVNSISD
# [2] = target: T2, Sentrin-specific protease 7 (Homo sapiens, UniProt Q9BQF6); assay: inhibition of human SENP7 cleavage activity – biochemical, luminescence, set 2, SAR follow-up (AID 588600); assay type: functional
# T2 sequence (Q9BQF6 whole entry): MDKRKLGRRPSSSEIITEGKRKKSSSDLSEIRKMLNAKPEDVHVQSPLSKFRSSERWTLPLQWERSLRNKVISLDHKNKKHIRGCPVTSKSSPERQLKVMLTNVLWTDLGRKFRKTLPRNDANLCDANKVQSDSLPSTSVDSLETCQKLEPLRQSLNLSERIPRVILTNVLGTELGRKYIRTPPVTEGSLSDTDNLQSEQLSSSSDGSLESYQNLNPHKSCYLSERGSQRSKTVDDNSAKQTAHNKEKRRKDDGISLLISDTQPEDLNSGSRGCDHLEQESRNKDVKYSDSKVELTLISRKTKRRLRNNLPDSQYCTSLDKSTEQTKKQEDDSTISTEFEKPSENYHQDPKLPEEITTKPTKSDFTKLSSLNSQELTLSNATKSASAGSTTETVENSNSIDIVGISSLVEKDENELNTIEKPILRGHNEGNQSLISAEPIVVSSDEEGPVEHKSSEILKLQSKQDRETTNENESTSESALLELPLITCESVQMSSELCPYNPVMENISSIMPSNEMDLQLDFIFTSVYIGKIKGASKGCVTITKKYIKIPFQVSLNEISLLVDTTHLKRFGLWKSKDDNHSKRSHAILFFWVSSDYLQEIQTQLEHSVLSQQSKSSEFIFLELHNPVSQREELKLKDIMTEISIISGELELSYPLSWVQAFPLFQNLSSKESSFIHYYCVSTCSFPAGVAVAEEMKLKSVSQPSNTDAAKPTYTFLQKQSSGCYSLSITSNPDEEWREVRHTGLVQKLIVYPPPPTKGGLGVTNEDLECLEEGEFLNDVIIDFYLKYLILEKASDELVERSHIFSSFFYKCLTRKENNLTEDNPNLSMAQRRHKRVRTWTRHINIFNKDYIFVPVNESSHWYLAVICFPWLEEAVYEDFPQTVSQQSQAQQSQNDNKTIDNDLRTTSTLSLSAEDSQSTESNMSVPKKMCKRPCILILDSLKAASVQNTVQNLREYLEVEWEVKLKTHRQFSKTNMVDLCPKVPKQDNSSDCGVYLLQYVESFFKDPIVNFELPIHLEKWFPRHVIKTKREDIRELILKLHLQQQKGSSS
# [3] = target: T3, Sentrin-specific protease 8 (Homo sapiens, UniProt Q96LD8); assay: inhibition of sentrin protease 8 – biochemical, luminescence, set 2, SAR follow-up (AID 588601); assay type: functional
# T3 sequence (Q96LD8 whole entry): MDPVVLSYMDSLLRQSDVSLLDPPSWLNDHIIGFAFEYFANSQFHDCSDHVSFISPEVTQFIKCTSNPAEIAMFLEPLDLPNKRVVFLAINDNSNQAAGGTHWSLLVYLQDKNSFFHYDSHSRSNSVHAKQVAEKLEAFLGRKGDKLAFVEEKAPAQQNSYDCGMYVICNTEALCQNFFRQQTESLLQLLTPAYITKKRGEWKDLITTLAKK
# Caspase-3 = target: T4, Caspase-3 (Homo sapiens, UniProt P42574); assay: inhibition of recombinant caspase-3 activity – biochemical, luminescence, set 2, selectivity assay for SENP protease inhibitor project, SAR follow-up (AID 588599); assay type: functional
# T4 sequence (P42574 whole entry): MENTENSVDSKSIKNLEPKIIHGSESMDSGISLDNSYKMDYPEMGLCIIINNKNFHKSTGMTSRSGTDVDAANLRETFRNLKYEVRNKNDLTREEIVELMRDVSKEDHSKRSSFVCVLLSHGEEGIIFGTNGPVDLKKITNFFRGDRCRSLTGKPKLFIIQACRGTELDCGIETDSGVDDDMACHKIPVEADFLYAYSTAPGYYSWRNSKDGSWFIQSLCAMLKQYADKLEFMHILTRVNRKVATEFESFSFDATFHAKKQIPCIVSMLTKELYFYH
# HEK293 [4] = assay: optical interference in Abeta FP readout, dose response, artefact control for IDE activator project, biochemical, fluorescence polarization (AID 588442); assay type: functional, cell-based; conditions: Homo sapiens
# HEK293 [5] = assay: membrane integrity loss in HEK cells – cell-based, fluorescence, cytotoxicity control for IDE activator project, dose response (AID 588440); assay type: functional; conditions: Homo sapiens;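 also: cytotoxicity by LDH release measuring loss of membrane integrity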
# Insulin-degrading enzyme [6] = target: T5, Insulin-degrading enzyme (Homo sapiens, UniProt P14735); assay: recombinant IDE activation, cell-free – biochemical, fluorescence polarization, counter-screen for IDE activator project, dose response (AID 588681)
# T5 sequence (P14735 whole entry): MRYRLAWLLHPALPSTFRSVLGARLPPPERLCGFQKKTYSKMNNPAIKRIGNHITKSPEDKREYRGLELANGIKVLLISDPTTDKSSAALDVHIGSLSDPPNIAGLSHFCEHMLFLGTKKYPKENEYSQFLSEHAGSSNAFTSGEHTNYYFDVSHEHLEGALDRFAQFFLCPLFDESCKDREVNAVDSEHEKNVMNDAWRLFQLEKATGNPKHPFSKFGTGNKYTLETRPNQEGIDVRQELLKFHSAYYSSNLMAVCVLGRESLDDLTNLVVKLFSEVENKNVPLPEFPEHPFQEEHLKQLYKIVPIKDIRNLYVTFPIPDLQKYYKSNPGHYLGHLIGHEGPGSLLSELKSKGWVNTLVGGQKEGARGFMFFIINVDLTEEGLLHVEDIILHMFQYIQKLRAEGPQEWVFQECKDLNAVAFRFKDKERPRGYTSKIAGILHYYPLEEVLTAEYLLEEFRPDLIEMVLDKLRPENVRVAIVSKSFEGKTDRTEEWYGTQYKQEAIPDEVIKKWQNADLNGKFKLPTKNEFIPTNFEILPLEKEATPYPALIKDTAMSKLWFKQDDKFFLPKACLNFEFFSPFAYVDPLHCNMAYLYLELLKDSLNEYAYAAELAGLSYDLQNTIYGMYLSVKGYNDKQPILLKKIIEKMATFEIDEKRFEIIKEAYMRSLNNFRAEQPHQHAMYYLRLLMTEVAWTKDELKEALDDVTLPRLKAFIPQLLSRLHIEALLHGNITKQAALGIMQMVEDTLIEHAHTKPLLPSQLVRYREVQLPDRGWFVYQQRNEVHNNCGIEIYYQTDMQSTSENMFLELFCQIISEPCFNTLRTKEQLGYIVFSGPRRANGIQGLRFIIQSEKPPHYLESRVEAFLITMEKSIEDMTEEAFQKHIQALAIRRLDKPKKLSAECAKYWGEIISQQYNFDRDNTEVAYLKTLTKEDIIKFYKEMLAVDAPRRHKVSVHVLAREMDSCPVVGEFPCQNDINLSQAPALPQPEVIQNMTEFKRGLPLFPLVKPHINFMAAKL
# Insulin-degrading enzyme [7] = target: T5, Insulin-degrading enzyme; assay: cellular IDE activation of Abeta substrate cleavage – fluorescence polarization, HEK cells, dose response (AID 588439); assay type: functional, cell-based
# [8] = viability of uninfected HEp-2 cells – cell-based, HTS, cytotoxicity control for RSV inhibitor project, dose response (AID 2410); assay type: functional; conditions: human respiratory syncytial virus
# [9] = target: T6, DNA dC->dU-editing enzyme APOBEC-3A (Homo sapiens, UniProt P31941); assay: A3A deaminase inhibition for selectivity – biochemical, dose response (AID 504722); assay type: functional
# [10] = target: T6, DNA dC->dU-editing enzyme APOBEC-3A; assay: SAR analysis of small molecule inhibitors of APOBEC3A DNA Deaminase via a fluorescence-based single-stranded DNA deaminase assay.; assay type: functional; conditions: read-out: IC50_Mean
# [11] = target: T7, DNA dC->dU-editing enzyme APOBEC-3G (Homo sapiens, UniProt Q9HC16); assay: Dose Response confirmation of small molecule APOBEC3G DNA Deaminase Inhibitors via a fluorescence-based single-stranded DNA deaminase assay. [Related pubchem assays (depositor defined):AID493012, AID493028]; assay type: functional
# [12] = target: T6, DNA dC->dU-editing enzyme APOBEC-3A; assay: SAR analysis of small molecule inhibitors of APOBEC3A DNA Deaminase via a fluorescence-based single-stranded DNA deaminase assay - Set 2.; assay type: functional; conditions: read-out: IC50_Mean
# [13] = target: T7, DNA dC->dU-editing enzyme APOBEC-3G; assay: SAR analysis of small molecule inhibitors of APOBEC3G DNA Deaminase via a fluorescence-based single-stranded DNA deaminase assay - Set 2.; assay type: functional; conditions: read-out: IC50_Mean
# [14] = target: T8, Rac GTPase-activating protein 1 (Homo sapiens, UniProt Q9H0H5); assay: blockers of MgcRacGAP-driven Rac1 GTP hydrolysis – biochemical, ADP Hunter fluorescence, primary and confirmatory, confirmation (AID 624330); assay type: functional
# T8 sequence (Q9H0H5 whole entry): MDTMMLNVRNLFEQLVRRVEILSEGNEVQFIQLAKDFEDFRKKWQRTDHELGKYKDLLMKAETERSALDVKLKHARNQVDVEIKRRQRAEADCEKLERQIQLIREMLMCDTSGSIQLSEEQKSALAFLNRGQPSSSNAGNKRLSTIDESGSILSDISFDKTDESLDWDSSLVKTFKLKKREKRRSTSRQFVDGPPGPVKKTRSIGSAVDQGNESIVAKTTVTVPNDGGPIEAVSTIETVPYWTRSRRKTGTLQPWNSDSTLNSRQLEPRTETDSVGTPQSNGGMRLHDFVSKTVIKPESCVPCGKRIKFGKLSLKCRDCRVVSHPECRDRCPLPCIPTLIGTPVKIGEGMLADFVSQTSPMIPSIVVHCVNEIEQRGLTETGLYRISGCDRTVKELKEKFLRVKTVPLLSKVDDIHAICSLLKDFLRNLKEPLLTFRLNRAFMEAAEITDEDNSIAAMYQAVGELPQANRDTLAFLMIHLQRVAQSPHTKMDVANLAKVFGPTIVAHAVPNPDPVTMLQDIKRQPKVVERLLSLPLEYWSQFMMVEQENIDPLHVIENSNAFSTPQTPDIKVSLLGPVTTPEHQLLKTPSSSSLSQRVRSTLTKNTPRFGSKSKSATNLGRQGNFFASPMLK
# [15] = target: T7, DNA dC->dU-editing enzyme APOBEC-3G; assay: inhibition of APOBEC3G ssDNA deamination – biochemical, fluorescence, single-stranded DNA substrate, SAR follow-up (AID 602136); assay type: functional; conditions: read-out: IC50_Mean
# T7 sequence (Q9HC16 whole entry): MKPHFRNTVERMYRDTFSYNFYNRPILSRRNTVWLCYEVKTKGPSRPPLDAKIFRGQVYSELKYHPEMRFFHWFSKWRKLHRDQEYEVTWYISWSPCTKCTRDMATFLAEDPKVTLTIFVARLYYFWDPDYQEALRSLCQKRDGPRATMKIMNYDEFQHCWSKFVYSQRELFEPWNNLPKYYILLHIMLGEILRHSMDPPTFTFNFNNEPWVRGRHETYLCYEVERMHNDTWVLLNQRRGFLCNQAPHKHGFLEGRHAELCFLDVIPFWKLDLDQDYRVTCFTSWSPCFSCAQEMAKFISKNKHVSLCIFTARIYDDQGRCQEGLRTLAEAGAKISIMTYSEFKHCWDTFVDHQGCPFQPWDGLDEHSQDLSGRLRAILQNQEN
# T6 sequence (P31941 whole entry): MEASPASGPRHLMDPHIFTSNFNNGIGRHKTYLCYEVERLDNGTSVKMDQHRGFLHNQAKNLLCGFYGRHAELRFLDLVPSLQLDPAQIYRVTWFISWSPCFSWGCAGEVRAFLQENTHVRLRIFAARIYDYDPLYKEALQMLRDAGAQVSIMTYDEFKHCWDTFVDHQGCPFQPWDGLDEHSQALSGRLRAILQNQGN
Structure (SMILES),IC50 [1],IC50 [2],IC50 [3],IC50 (Caspase-3),EC50 (HEK293 [4]),IC50 (HEK293 [5]),EC50 (Insulin-degrading enzyme [6]),EC50 (Insulin-degrading enzyme [7]),other results
CN(C)C(=O)C(=O)c1c(-c2ccccc2)[nH]c2ccc(Cl)cc12,> 99 µM (inactive),> 99 µM (inactive),> 99 µM (inactive),> 99 µM (inactive),,,,,
COc1ccc(NCC(O)COc2ccc(C(C)(C)C)cc2)cc1 (centres undefined),,,,,> 54.7 µM (inactive),49.1 µM (inactive),> 54.7 µM (inactive),> 54.7 µM (inactive),
CNC(=O)C1Cc2ccccc2N1C(=O)C(=O)c1c(C)[nH]c2ccccc12 (centres undefined),> 99 µM (inactive),> 99 µM (inactive),> 99 µM (inactive),> 99 µM (inactive),,,,,
COc1cc(C2Nc3cccc4cccc(c34)N2)ccc1O,,,,,> 54.7 µM (inactive),> 89.3 µM (inactive),> 54.7 µM (inactive),> 54.7 µM (inactive),CC50 [8]: 32.1 µM (active)
Cc1ccc(-c2csc3n[nH]c(=S)n23)cc1,,,,,,,,,IC50 [9]: > 100 µM (inactive); IC50 [10]: > 99 µM (inactive); IC50 [11]: 1.35 µM (active); IC50 [12]: > 99 µM (inactive); IC50 [13]: > 99 µM (inactive); IC50 [14]: 58.1 µM (active); IC50 [15]: 3.48 µM (active)
